What was measured:
Type in all cases: in vivo
MATIN Matricaria inodora = assay: Post-emergence herbicidal action against harmful plants; conditions: 80 g a.i./ha, scored after 3 to 4 weeks
Description: (§1) Seeds of mono- and dicotyledonous harmful plants are placed in sandy loam in cardboard pots, covered with soil and grown in the greenhouse under good growth conditions. Two to three weeks after sowing, the test plants are treated at the three-leaf stage. The compounds according to the invention, which are formulated as wettable powders or as emulsion concentrates, are sprayed at an application rate of 600 to 800 l of water/ha (converted) in a dosage stated in tables 1 to 5 onto the surface of the green plant parts. After the test plants have been left to stand in the greenhouse for 3 to 4 weeks under optimum growth conditions, the action of the compounds according to the invention is scored in comparison to compounds disclosed in the prior art. As shown by the results of these comparison tables, the selected compounds according to the invention have better herbicidal activity against a broad spectrum of economically important mono- and dicotyledonous harmful plants than the compounds disclosed in the prior art.

VERPE Veronica persica [1] = assay: as above; conditions: 80 g a.i./ha, scored after 3 to 4 weeks
Description: as §1

VIOTR Viola tricolor [2] = assay: as above; conditions: 80 g a.i./ha, scored after 3 to 4 weeks
Description: as §1

[3] = test system: XANST Xanthium strumarium; assay: as above; conditions: 80 g a.i./ha, scored after 3 to 4 weeks, Comparative Table 11
Description: as §1

[4] = test system: DIGSA Digitaria sanguinalis; assay: as above; conditions: 80 g a.i./ha, scored after 3 to 4 weeks, Comparative Table 10
Description: as §1

[5] = test system: ECHCG Echinochloa crus galli; assay: as above; conditions: scored after 3 to 4 weeks
Description: as §1

LOLMU Lolium multiflorum [6] = assay: as above; conditions: scored after 3 to 4 weeks
Description: as §1

SETVI Setaria viridis [7] = assay: as above; conditions: scored after 3 to 4 weeks
Description: as §1

GALAP Galium aparine = assay: Pre-emergence herbicidal action against harmful plants; conditions: 80 g a.i./ha, visual scoring 3-4 weeks after treatment, Comparative Table 8
Source text: (§2) Seeds or rhizome pieces of mono- and dicotyledonous harmful plants are placed in sandy loam in pots of a diameter of 9 to 13 cm and covered with soil. The herbicides, formulated as emulsifiable concentrates or dusts, are applied to the surface of the covering soil in the form of aqueous dispersions or suspensions or emulsions at an application rate of 300 to 800 l of water/ha (converted), at various dosages. For further cultivation of the plants, the pots are then kept in a greenhouse under optimum conditions. The visual scoring of the damage to the harmful plants is carried out 3-4 weeks after the treatment. As shown by the results of these comparative tables, the selected compounds according to the invention have better herbicidal activity against a broad spectrum of economically important mono- and dicotyledonous harmful plants than the compounds disclosed in the prior art.

LOLMU Lolium multiflorum [8] = assay: as above; conditions: visual scoring 3-4 weeks after treatment
Source text: as §2

[9] = test system: POLCO Polygonum convolvulus; assay: as above; conditions: 80 g a.i./ha, visual scoring 3-4 weeks after treatment, Comparative Table 8
Source text: as §2

VERPE Veronica persica [10] = assay: as above; conditions: 80 g a.i./ha, visual scoring 3-4 weeks after treatment
Source text: as §2

VIOTR Viola tricolor [11] = assay: as above; conditions: 80 g a.i./ha, visual scoring 3-4 weeks after treatment, Comparative Table 9
Source text: as §2

[12] = test system: XANST Xanthium strumarium; assay: as above; conditions: 80 g a.i./ha, visual scoring 3-4 weeks after treatment, Comparative Table 9
Source text: as §2

[13] = test system: ABUTH Abutilon theophrasti; assay: as above; conditions: 80 g a.i./ha, visual scoring 3-4 weeks after treatment, Comparative Table 1
Source text: as §2

[14] = test system: ECHCG Echinochloa crus galli; assay: as above; conditions: 80 g a.i./ha, visual scoring 3-4 weeks after treatment, Comparative Table 1
Source text: as §2

[15] = test system: ABUTH Abutilon theophrasti; assay: Post-emergence herbicidal action against harmful plants; conditions: Port-emergence, 80 g a.i./ha, scored after 3 to 4 weeks; Comparative Table 4
Description: as §1

[16] = test system: AMARE Amaranthus retroflexus; assay: as above; conditions: Port-emergence, 80 g a.i./ha, scored after 3 to 4 weeks; Comparative Table 4
Description: as §1

[17] = test system: POLCO Polygonum convolvulus; assay: as above; conditions: Port-emergence, 80 g a.i./ha, scored after 3 to 4 weeks; Comparative Table 5
Description: as §1

STEME Stellaria media [18] = assay: as above; conditions: Port-emergence, 80 g a.i./ha, scored after 3 to 4 weeks; Comparative Table 5
Description: as §1

[19] = test system: AMARE Amaranthus retroflexus; assay: Pre-emergence herbicidal action against harmful plants; conditions: visual scoring 3-4 weeks after treatment
Source text: as §2

AVESA [20] = assay: as above; conditions: 320 g a.i./ha, visual scoring 3-4 weeks after treatment, Comparative Table 6
Source text: as §2

SETVI Setaria viridis [21] = assay: as above; conditions: 320 g a.i./ha, visual scoring 3-4 weeks after treatment, Comparative Table 6
Source text: as §2

STEME Stellaria media [22] = assay: as above; conditions: 80 g a.i./ha, visual scoring 3-4 weeks after treatment, Comparative Table 2
Source text: as §2

AVESA [23] = assay: Post-emergence herbicidal action against harmful plants; conditions: Port-emergence, scored after 3 to 4 weeks, Comparative Table 7
Description: as §1

[24] = Post-emergence, Comparative Table 11
[25] = Post-emergence, 80 g a.i./ha, Comparative Table 10
[26] = 80 g a.i./ha, Comparative Table 8
[27] = 80 g a.i./ha, Comparative Table 1
[28] = Port-emergence, Comparative Table 4
[29] = Port-emergence, Comparative Table 5
[30] = 320 g a.i./ha, Comparative Table 6
[31] = 80 g a.i./ha, Comparative Table 2
[32] = Post-emergence, 80 g a.i./ha, Comparative Table 3
[33] = Port-emergence, 320 g a.i./ha, Comparative Table 7
[34] = Port-emergence, 80 g a.i./ha, Comparative Table 7

CCn1ncc(C(=O)c2ccc(S(C)(=O)=O)c(S(C)(=O)=O)c2C)c1O [drawing 36]
Activity against harmful plants MATIN (MATIN Matricaria inodora; [24]): 40%
Activity against harmful plants VERPE (VERPE Veronica persica [1]; [24]): 80%
Activity against harmful plants VIOTR (VIOTR Viola tricolor [2]; [24]): 50%
Activity against harmful plants XANST [3]: 70%

CCn1ncc(C(=O)c2ccc(S(C)(=O)=O)c(S(C)(=O)=O)c2C)c1O [drawing 34]
Activity against harmful plants DIGSA [4]: 80%
Activity against harmful plants ECHCG [5, 25]: 80%
Activity against harmful plants LOLMU (LOLMU Lolium multiflorum [6]; [25]): 20%
Activity against harmful plants SETVI (SETVI Setaria viridis [7]; [25]): 80%

CCn1ncc(C(=O)c2ccc(S(C)(=O)=O)c(S(C)(=O)=O)c2C)c1O [drawing 30]
Activity against harmful plants GALAP (GALAP Galium aparine): 60%
Activity against harmful plants LOLMU (LOLMU Lolium multiflorum [8]; [26]): 0%
Activity against harmful plants POLCO [9]: 30%

CCn1ncc(C(=O)c2ccc(S(C)(=O)=O)c(S(C)(=O)=O)c2C)c1O [drawing 32]
Activity against harmful plants VERPE (VERPE Veronica persica [10]; Comparative Table 9): 80%
Activity against harmful plants VIOTR (VIOTR Viola tricolor [11]): 20%
Activity against harmful plants XANST [12]: 40%

CCn1ncc(C(=O)c2ccc(C(F)(F)F)c(S(C)(=O)=O)c2C)c1O [drawing 15]
Activity against harmful plants ABUTH [13]: 100%
Activity against harmful plants ECHCG [14]: 100%
Activity against harmful plants LOLMU (LOLMU Lolium multiflorum [8]; [27]): 70%

CCn1ncc(C(=O)c2ccc(C(F)(F)F)c(F)c2C)c1O [drawing 22]
Activity against harmful plants ABUTH [15]: 80%
Activity against harmful plants AMARE [16]: 0%
Activity against harmful plants MATIN (MATIN Matricaria inodora; [28]): 0%

CCn1ncc(C(=O)c2ccc(C(F)(F)F)c(F)c2C)c1O [drawing 24]
Activity against harmful plants POLCO [17]: 60%
Activity against harmful plants STEME (STEME Stellaria media [18]): 0%
Activity against harmful plants VERPE (VERPE Veronica persica [1]; [29]): 0%
Activity against harmful plants VIOTR (VIOTR Viola tricolor [2]; [29]): 0%

Cc1c(C(=O)c2cnn(C)c2O)ccc(C(F)(F)F)c1S(C)(=O)=O [drawing 25]
Activity against harmful plants AMARE [19, 30]: 100%
Activity against harmful plants AVESA (AVESA [20]): 90%
Activity against harmful plants LOLMU (LOLMU Lolium multiflorum [8]; [30]): 90%
Activity against harmful plants SETVI (SETVI Setaria viridis [21]): 100%

CCn1ncc(C(=O)c2ccc(C(F)(F)F)c(S(C)(=O)=O)c2C)c1O [drawing 17]
Activity against harmful plants AMARE [19, 31]: 90%
Activity against harmful plants STEME (STEME Stellaria media [22]): 90%
Activity against harmful plants VERPE (VERPE Veronica persica [10]; Comparative Table 2): 90%

CCn1ncc(C(=O)c2ccc(C(F)(F)F)c(F)c2C)c1O [drawing 16]
Activity against harmful plants ABUTH [13]: 0%
Activity against harmful plants ECHCG [14]: 30%
Activity against harmful plants LOLMU (LOLMU Lolium multiflorum [8]; [27]): 0%

CCn1ncc(C(=O)c2ccc(C(F)(F)F)c(S(C)(=O)=O)c2C)c1O [drawing 35]
Activity against harmful plants MATIN (MATIN Matricaria inodora; [24]): 90%
Activity against harmful plants VERPE (VERPE Veronica persica [1]; [24]): 90%
Activity against harmful plants VIOTR (VIOTR Viola tricolor [2]; [24]): 80%
Activity against harmful plants XANST [3]: 100%

CCn1ncc(C(=O)c2ccc(C(F)(F)F)c(F)c2C)c1O [drawing 18]
Activity against harmful plants AMARE [19, 31]: 0%
Activity against harmful plants STEME (STEME Stellaria media [22]): 40%
Activity against harmful plants VERPE (VERPE Veronica persica [10]; Comparative Table 2): 0%

CCn1ncc(C(=O)c2ccc(C(F)(F)F)c(S(C)(=O)=O)c2C)c1O [drawing 19]
Activity against harmful plants ECHCG [5, 32]: 90%
Activity against harmful plants LOLMU (LOLMU Lolium multiflorum [6]; [32]): 60%
Activity against harmful plants SETVI (SETVI Setaria viridis [7]; [32]): 100%

CCn1ncc(C(=O)c2ccc(C(F)(F)F)c(S(C)(=O)=O)c2C)c1O [drawing 23]
Activity against harmful plants POLCO [17]: 100%
Activity against harmful plants STEME (STEME Stellaria media [18]): 90%
Activity against harmful plants VERPE (VERPE Veronica persica [1]; [29]): 90%
Activity against harmful plants VIOTR (VIOTR Viola tricolor [2]; [29]): 80%

CCn1ncc(C(=O)c2ccc(C(F)(F)F)c(S(C)(=O)=O)c2C)c1O [drawing 31]
Activity against harmful plants VERPE (VERPE Veronica persica [10]; Comparative Table 9): 90%
Activity against harmful plants VIOTR (VIOTR Viola tricolor [11]): 90%
Activity against harmful plants XANST [12]: 100%

CCn1ncc(C(=O)c2ccc(C(F)(F)F)c(S(C)(=O)=O)c2C)c1O [drawing 21]
Activity against harmful plants ABUTH [15]: 90%
Activity against harmful plants AMARE [16]: 100%
Activity against harmful plants MATIN (MATIN Matricaria inodora; [28]): 90%

Cc1c(C(=O)c2cnn(C)c2O)ccc(C(F)(F)F)c1Cl
Activity against harmful plants AVESA (AVESA [23]; 320 g a.i./ha): 20%
Activity against harmful plants ECHCG [5, 33]: 0%
Activity against harmful plants LOLMU (LOLMU Lolium multiflorum [6]; [33]): 20%
Activity against harmful plants SETVI (SETVI Setaria viridis [7]; [33]): 30%

CCn1ncc(C(=O)c2ccc(C(F)(F)F)c(S(C)(=O)=O)c2C)c1O [drawing 29]
Activity against harmful plants GALAP (GALAP Galium aparine): 80%
Activity against harmful plants LOLMU (LOLMU Lolium multiflorum [8]; [26]): 70%
Activity against harmful plants POLCO [9]: 50%

Cc1c(C(=O)c2cnn(C)c2O)ccc(C(F)(F)F)c1S(C)(=O)=O [drawing 27]
Activity against harmful plants AVESA (AVESA [23]; 80 g a.i./ha): 70%
Activity against harmful plants ECHCG [5, 34]: 90%
Activity against harmful plants LOLMU (LOLMU Lolium multiflorum [6]; [34]): 80%
Activity against harmful plants SETVI (SETVI Setaria viridis [7]; [34]): 90%

CCn1ncc(C(=O)c2ccc(C(F)(F)F)c(F)c2C)c1O [drawing 20]
Activity against harmful plants ECHCG [5, 32]: 0%
Activity against harmful plants LOLMU (LOLMU Lolium multiflorum [6]; [32]): 0%
Activity against harmful plants SETVI (SETVI Setaria viridis [7]; [32]): 0%

CCn1ncc(C(=O)c2ccc(C(F)(F)F)c(S(C)(=O)=O)c2C)c1O [drawing 33]
Activity against harmful plants DIGSA [4]: 100%
Activity against harmful plants ECHCG [5, 25]: 90%
Activity against harmful plants LOLMU (LOLMU Lolium multiflorum [6]; [25]): 60%
Activity against harmful plants SETVI (SETVI Setaria viridis [7]; [25]): 100%

Cc1c(C(=O)c2cnn(C)c2O)ccc(C(F)(F)F)c1F
Activity against harmful plants AMARE [19, 30]: 50%
Activity against harmful plants AVESA (AVESA [20]): 20%
Activity against harmful plants LOLMU (LOLMU Lolium multiflorum [8]; [30]): 20%
Activity against harmful plants SETVI (SETVI Setaria viridis [21]): 20%

— patent publication US7932211B2, “4-(4-trifluoromethyl-3-thiobenzoyl)pyrazoles and their use as herbicides” (Bayer Cropscience AG, priority 2007, dated 2011)
